Data: patent US5506217A, “Phosphonates as anti-cancer agents” (The University of British Columbia, priority 1994, dated 1996)

Experiments:
[1] = body weight and general toxicity in the B-16/F10 melanoma study; type: in vivo, C57BL/6 mice; conditions: for Body weight (grams): 10 mg/kg IM (5 days/week for 2 weeks)
Method: (§1) Highly metastatic B-16/F10 melanoma cells were injected into the tail veins of female C57BL/6 mice (1×10^5 cells per mouse). Treatment of one group of mice with the phosphonate compound of the above formula (compound VIII), dissolved into 0.5mL ethanol, 0.5 mL cremaphor and 9.0 mL phosphate buffered saline, began three days after the tumor cells were injected. lntramuscular injections of 0.2 mL of the phosphonate emulsion (10 mg/kg/day) were given for 5 days per week for 2 weeks. A second group of mice were treated with Adriamycin (10 mg/kg given intravenously on days 0, 4 and 8) as a known anti-cancer drug control group, while a third group of mice received the vehicle emulsion alone. The mice were examined every day for general health, behaviour and body weight. Counts of metastatic melanomic tumor colonies found in the lungs, general observations of metastasis to distant organs and examination of organs (liver, kidneys, lungs and spleen) were taken at autopsy 4 weeks after treatment.

[2] = system: WEHI-3B (mouse granulocytic leukemia); assay: cytotoxicity IC50 (3H-thymidine uptake, colonogenic cell survival and MTT assays); type: cell-based; conditions: WEHI3B
Excerpt: (§2) A combination of ^3 H-Thymidine incorporation assay, colonogenic cell survival assay and MTT assay was used to determine cytotoxicity data of phosphonates in several mouse and human tumor cell lines.

[3] = system: 2008 (human ovarian cancer); assay: as above; type: cell-based
Excerpt: as §2

[4] = system: MCF-7 (human breast cancer); assay: as above; type: cell-based; conditions: MCF7
Excerpt: as §2

[5] = system: P388 (mouse monocytic leukemia); assay: as above; type: cell-based
Excerpt: as §2

[6] = system: LLC (mouse Lewis lung carcinoma); assay: as above; type: cell-based
Excerpt: as §2

[7] = system: HT29 (human colon cancer); assay: as above; type: cell-based; conditions: HT-29
Excerpt: as §2

[8] = system: RPMI (advanced human melanoma); assay: as above; type: cell-based
Excerpt: as §2

[9] = system: L1210 (mouse B-cell lymphoma); assay: as above; type: cell-based
Excerpt: as §2

[10] = system: HCT-116 (human rectal cancer); assay: as above; type: cell-based
Excerpt: as §2

[11] = system: P388 DR (drug resistant P388); assay: as above; type: cell-based; conditions: Mus musculus
Excerpt: as §2

[12] = system: MeWo (human melanoma cancer); assay: as above; type: cell-based
Excerpt: as §2

[13] = system: RPMI-7951 (human melanoma); assay: colonogenic cell survival assay; type: cell-based; conditions: 120 h, read-out: Colonies formed (% of control)
Method: (§3) Inhibition of colony formation in soft agar medium (colonogenic cell survival assay) is a more rigorous and direct measurement of cell kill or growth inhibition, and reflects the anti-cancer activity of the test compound. Briefly, tumor cells were cultured in petri dishes in methylcellulose, with or without a phosphonate test compound, and the number of colonies formed during a 5-day incubation period were counted.
(§4) The anti-cancer activity of the phosphonate compound of the formula shown above (compound VIII) was examined in human melanoma and colorectal tumor cell lines using the colonogenic cell survival assay (described above). RPMI-7951 (human melanoma) and HT-29 (human colorectal cancer) tumor cell lines were evaluated for their sensitivity to the cytotoxic activity of the above phosphonate (compound VIII).

[14] = system: HT-29 (human colorectal cancer); assay: colonogenic cell survival assay; type: cell-based; conditions: 120 h, read-out: Colonies formed (% of control)
Method: as §3, §4

[15] = system: L1210 (B-cell lymphoma) cells; assay: survival of CD1 mice injected with L1210 lymphoma cells; type: in vivo; conditions: 10 mg/kg per day IM
Method: The effects of phosphonates in a mouse model of lymphoma were also studied. Mice (CD 1) were injected with 1×10^6 L1210 (B-cell lymphoma) cells intraperitoneally. In one group the mice received the phosphonate compound of the following formula at 10 mg/kg per day intramuscularly, while a second group of mice received no treatment: [drawing 18]

[16] = system: B-16/F10 melanoma cells; assay: B-16/F10 melanoma metastasis in C57BL/6 mice; type: in vivo; conditions: 10 mg/kg IM (5 days/week for 2 weeks)
Method: as §1

[17] = system: LLC tumor cells (Lewis Lung carcinoma); assay: colonogenic cell survival assay; type: cell-based; conditions: Mus musculus, 120 h, read-out: Colonies formed after 5 days (% of control)
Method: as §3
Lewis Lung carcinoma (LLC), a cancer cell linc derived from […] of mice, was evaluated for its sensitivity to the cytotoxic activity of phosphonates of the following structure using the colonogenic cell survival assay (described above): [drawing 19]

[18] = system: DHL4, a human B cell lymphoma; assay: colonogenic cell survival assay; type: cell-based; conditions: 120 h, read-out: Colonies formed after 5-days (% of control)
Method: as §3
The anti-cancer activity of the phosphonate of the following formula: [drawing 16] against human leukemia and lymphoma was also studied using the colonogenic cell survival assay. DHL4, a human B cell lymphoma; HeL, a human erythroid leukemia: JRT3T3, a human T-cell lymphoma; and KG 1α, a human mycloid leukemia, were evaluated for their sensitivity to the cytotoxic activity of the phosphonate of the above formula (compound VIII).

For `CCCCCCCCCCCCCCCCOCC(CCP(=O)([O-])OCC[N+](C)(C)C)OC` (centres unmarked) [compound VIII], the “Body weight (grams)” value ([1]; Mouse 1, day 0) was 19 grams, the “Body weight (grams)” value ([1]; Mouse 1, day 12) was 20 grams and the “Body weight (grams)” value ([1]; Mouse 1, day 26) was 23 grams. For the same molecule, the “Body weight (grams)” value ([1]; Mouse 2, day 0) was 19 grams, the “Body weight (grams)” value ([1]; Mouse 2, day 12) was 20 grams and the “Body weight (grams)” value ([1]; Mouse 2, day 26) was 22 grams. The “Body weight (grams)” value ([1]; Mouse 3, day 0) was 19 grams, the “Body weight (grams)” value ([1]; Mouse 3, day 12) was 21 grams and the “Body weight (grams)” value ([1]; Mouse 3, day 26) was 24 grams. The “Body weight (grams)” value ([1]; Mouse 4, day 0) was 20 grams, the “Body weight (grams)” value ([1]; Mouse 4, day 12) was 21 grams and the “Body weight (grams)” value ([1]; Mouse 4, day 26) was 25 grams. For the same molecule, the “Body weight (grams)” value ([1]; Mouse 5, day 0) was 19 grams, the “Body weight (grams)” value ([1]; Mouse 5, day 12) was 21 grams and the “Body weight (grams)” value ([1]; Mouse 5, day 26) was 24 grams. For the same molecule, the “Body weight (grams)” value ([1]; Mouse 6, day 0) was 20 grams, the “Body weight (grams)” value ([1]; Mouse 6, day 12) was 21 grams and the “Body weight (grams)” value ([1]; Mouse 6, day 26) was 24 grams. For the same molecule, the “toxicity (weight, behaviour and appearance of the mice; in words)” value ([1]; intramuscularly, 10 mg/kg for 2 weeks) was “not toxic”, the IC50 [2] was 2.5 µM and the IC50 [3] was 27.8 µM. It also gave an IC50 [4] of 35.3 µM, an IC50 [5] of 4.5 µM and an IC50 [6] of 10.6 µM. It also gave an IC50 [7] of 9 µM, an IC50 [8] of 9 µM and an IC50 [9] of 5 µM. The IC50 [10] was 12 µM, the IC50 [11] was 5 µM and the IC50 [12] was 15.7 µM. The activity at 2.5 µM ([13]; 2.5 μM) was 68%, the activity at 5 µM ([13]; 5 μM) was 43% and the activity at 10 µM ([13]; 10 μM) was 13%. It also gave an activity at 20 µM ([13]; 20 μM) of 3%, an activity at 40 µM ([13]; 40 μM) of 0% and an activity at 2.5 µM ([14]; 2.5 μM) of 74%. It also gave an activity at 5 µM ([14]; 5 μM) of 51%, an activity at 10 µM ([14]; 10 μM) of 22% and an activity at 20 µM ([14]; 20 μM) of 8%. The activity at 40 µM ([14]; 40 μM) was 0%, the “% Survival” value ([15]; day 0 after injection of L1210 cells) was 100% and the “% Survival” value ([15]; day 7 after injection of L1210 cells) was 100%. The “% Survival” value ([15]; day 8 after injection of L1210 cells) was 100%, the “% Survival” value ([15]; day 19 after injection of L1210 cells) was 100% and the “% Survival” value ([15]; day 21 after injection of L1210 cells) was 100%. The “deaths among treated animals (in words)” value ([15]; up to 21 days of observation) was “None of the phosphonate-treated (compound VIII) animals died”, the “melanomic metastasis to distant organs at autopsy (in words)” value [16] was “no traces of melanomic metastasis to distant organs were evident in five of six animals” and the “Melanomic tumor colonies found in the lungs at autopsy” value (from here on “Melanomic tumor colonies found”) ([16]; Mouse 1) was 2. The “Melanomic tumor colonies found” value ([16]; Mouse 2) was 0, the “Melanomic tumor colonies found” value ([16]; Mouse 3) was 1 and the “Melanomic tumor colonies found” value ([16]; Mouse 4) was 0. For the same molecule, the “Melanomic tumor colonies found” value ([16]; Mouse 5) was 0, the “Melanomic tumor colonies found” value ([16]; Mouse 6) was 3 and the activity at 1.25 µM ([17]; 1.25 μM) was 97 ± 9%. It also gave an activity at 2.5 µM ([17]; 2.5 μM) of 81 ± 6%, an activity at 5 µM ([17]; 5 μM) of 67 ± 5% and an activity at 10 µM ([17]; 10 μM) of 53 ± 4%. It also gave an activity at 20 µM ([17]; 20 μM) of 37 ± 5%, an activity at 40 µM ([17]; 40 μM) of 19 ± 6% and an activity at 1.25 µM ([18]; 1.25 μM) of 76 ± 7%. The activity at 2.5 µM ([18]; 2.5 μM) was 61 ± 5%, the activity at 5 µM ([18]; 5 μM) was 42 ± 6% and the activity at 10 µM ([18]; 10 μM) was 18 ± 4%. The activity at 20 µM ([18]; 20 μM) was 5 ± 1% and the activity at 40 µM ([18]; 40 μM) was 0%.
